Test system: MDA-MB-231 multicell spheroids, viability
Assay: Anticancer human tumor MDA-MB-231 cell line growth inhibition [PI3K];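 further: spheroids exposed to agents for seven days before reading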;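 on viability, T/C: percent of vehicle control luminescence with DMSO treated spheroids as 100%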
Conditions: for IC50: curve of first compound; for viability, T/C: stronger effect = lower value
Method in brief: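 We assembled tumor spheroids that included a stromal compartment of HUVEC and MSCs, then exposed them to targeted agents alone and together with PI3K pathway inhibitors. Concentration series descended by half-log from clinically achievable Cmax levels. Viability served as the endpoint.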

[1] = second compound 0.00316 µM, first compound 0.0316 µM
[2] = second compound 0.00316 µM, first compound 0.1 µM
[3] = second compound 0.00316 µM, first compound 0.316 µM
[4] = second compound 0.00316 µM, first compound 1 µM
[5] = second compound 0.00316 µM, first compound 3.16 µM
[6] = second compound 0.00316 µM, first compound 10 µM
[7] = second compound 0.01 µM, first compound 0.0316 µM
[8] = second compound 0.01 µM, first compound 0.1 µM
[9] = second compound 0.01 µM, first compound 0.316 µM
[10] = second compound 0.01 µM, first compound 1 µM
[11] = second compound 0.01 µM, first compound 3.16 µM
[12] = second compound 0.01 µM, first compound 10 µM
[13] = second compound 0.0316 µM, first compound 0.0316 µM
[14] = second compound 0.0316 µM, first compound 0.1 µM
[15] = second compound 0.0316 µM, first compound 0.316 µM
[16] = second compound 0.0316 µM, first compound 1 µM
[17] = second compound 0.0316 µM, first compound 3.16 µM
[18] = second compound 0.0316 µM, first compound 10 µM
[19] = second compound 0.1 µM, first compound 0.0316 µM
[20] = second compound 0.1 µM, first compound 0.1 µM
[21] = second compound 0.1 µM, first compound 0.316 µM
[22] = second compound 0.1 µM, first compound 1 µM
[23] = second compound 0.1 µM, first compound 3.16 µM
[24] = second compound 0.1 µM, first compound 10 µM
[25] = second compound 0.316 µM, first compound 0.0316 µM
[26] = second compound 0.316 µM, first compound 0.1 µM
[27] = second compound 0.316 µM, first compound 0.316 µM
[28] = second compound 0.316 µM, first compound 1 µM
[29] = second compound 0.316 µM, first compound 3.16 µM
[30] = second compound 0.316 µM, first compound 10 µM
[31] = second compound 1 µM, first compound 0.0316 µM
[32] = second compound 1 µM, first compound 0.1 µM
[33] = second compound 1 µM, first compound 0.316 µM
[34] = second compound 1 µM, first compound 1 µM
[35] = second compound 1 µM, first compound 3.16 µM
[36] = second compound 1 µM, first compound 10 µM

Compound `C#Cc1c(F)ccc2cc(O)cc(-c3ncc4c(N5CC6CCC(C5)N6)nc(OCC56CCCN5CC(F)C6)nc4c3F)c12` (stereo not drawn) + CC(Nc1ccc2c(c1)OCCn1cc(N3C(=O)OCC3C(F)F)nc1-2)C(N)=O has an IC50 (second compound 0.00316 µM) of 9280 nM, an IC50 (second compound 0.01 µM) of 8370 nM and an IC50 (second compound 0.0316 µM) of 4680 nM. It also gave an IC50 (second compound 0.1 µM) of 3360 nM, an IC50 (second compound 0.316 µM) of 1540 nM and an IC50 (second compound 1 µM) of 1060 nM. It also gave a viability, T/C [1] of 103%, a viability, T/C [2] of 99% and a viability, T/C [3] of 96.1%. For the same compound, the viability, T/C [4] was 86.7%, the viability, T/C [5] was 69.8% and the viability, T/C [6] was 48.6%. For the same compound, the viability, T/C [7] was 94%, the viability, T/C [8] was 94.8% and the viability, T/C [9] was 87.6%. For the same compound, the viability, T/C [10] was 78.3%, the viability, T/C [11] was 63.9% and the viability, T/C [12] was 47.4%. It also gave a viability, T/C [13] of 74.2%, a viability, T/C [14] of 83.1% and a viability, T/C [15] of 74.4%. For the same compound, the viability, T/C [16] was 61.4%, the viability, T/C [17] was 56.7% and the viability, T/C [18] was 41.8%. The viability, T/C [19] was 70.3%, the viability, T/C [20] was 65.3% and the viability, T/C [21] was 64.5%. For the same compound, the viability, T/C [22] was 56.8%, the viability, T/C [23] was 53.7% and the viability, T/C [24] was 35.5%. For the same compound, the viability, T/C [25] was 67.6%, the viability, T/C [26] was 67.1% and the viability, T/C [27] was 58.8%. It also gave a viability, T/C [28] of 54.2%, a viability, T/C [29] of 44% and a viability, T/C [30] of 33.4%. For the same compound, the viability, T/C [31] was 60.7%, the viability, T/C [32] was 54.4% and the viability, T/C [33] was 55.4%. The viability, T/C [34] was 51.4%, the viability, T/C [35] was 41.5% and the viability, T/C [36] was 28%.
Compound `CC1(C)CCC(Nc2ncc(C(F)(F)F)c(-c3c[nH]c4c(P(C)(C)=O)c(C#N)ccc34)n2)CN1` (stereo not drawn) + CC(Nc1ccc2c(c1)OCCn1cc(N3C(=O)OCC3C(F)F)nc1-2)C(N)=O has an IC50 (second compound 0.00316 µM) of under 31.6 nM, an IC50 (second compound 0.01 µM) of under 31.6 nM and an IC50 (second compound 0.0316 µM) of under 31.6 nM. For the same compound, the IC50 (second compound 0.1 µM) was under 31.6 nM, the IC50 (second compound 0.316 µM) was under 31.6 nM and the IC50 (second compound 1 µM) was under 31.6 nM. The viability, T/C [1] was 47.2%, the viability, T/C [2] was 47.7% and the viability, T/C [3] was 42.2%. The viability, T/C [4] was 48.2%, the viability, T/C [5] was 47.4% and the viability, T/C [6] was 4.16%. The viability, T/C [7] was 48.4%, the viability, T/C [8] was 44.9% and the viability, T/C [9] was 44.2%. The viability, T/C [10] was 46.7%, the viability, T/C [11] was 47.5% and the viability, T/C [12] was 3.26%. The viability, T/C [13] was 45.1%, the viability, T/C [14] was 42.1% and the viability, T/C [15] was 43.6%. For the same compound, the viability, T/C [16] was 45.2%, the viability, T/C [17] was 42.4% and the viability, T/C [18] was 3.28%. It also gave a viability, T/C [19] of 41.9%, a viability, T/C [20] of 39.6% and a viability, T/C [21] of 41.1%. For the same compound, the viability, T/C [22] was 37.8%, the viability, T/C [23] was 36.2% and the viability, T/C [24] was 2.99%. It also gave a viability, T/C [25] of 39.8%, a viability, T/C [26] of 38.9% and a viability, T/C [27] of 36.1%. The viability, T/C [28] was 37.4%, the viability, T/C [29] was 34.8% and the viability, T/C [30] was 2.9%. For the same compound, the viability, T/C [31] was 37.8%, the viability, T/C [32] was 36% and the viability, T/C [33] was 33.4%. It also gave a viability, T/C [34] of 34.6%, a viability, T/C [35] of 34.9% and a viability, T/C [36] of 2.74%.
Compound `CNC(=O)c1ccc(N2C(=S)N(c3ccc(C#N)c(C(F)(F)F)c3)C(=O)C2(C)C)cc1F` + CC(Nc1ncnc2nc[nH]c12)c1cc2cccc(Cl)c2c(=O)n1-c1ccccc1 has an IC50 (second compound 0.0316 µM) of over 10000 nM, an IC50 (second compound 0.1 µM) of over 10000 nM and an IC50 (second compound 0.316 µM) of over 10000 nM. It also gave an IC50 (second compound 1 µM) of over 10000 nM, an IC50 (second compound 3.16 µM) of over 10000 nM and an IC50 (second compound 10 µM) of 89.7 nM. The viability, T/C [13] was 101%, the viability, T/C [14] was 110% and the viability, T/C [15] was 102%. The viability, T/C [16] was 94%, the viability, T/C [17] was 97.5% and the viability, T/C [18] was 70.3%. For the same compound, the viability, T/C [19] was 93%, the viability, T/C [20] was 96% and the viability, T/C [21] was 105%. For the same compound, the viability, T/C [22] was 101%, the viability, T/C [23] was 95.7% and the viability, T/C [24] was 79.9%. It also gave a viability, T/C [25] of 89%, a viability, T/C [26] of 96.8% and a viability, T/C [27] of 91.1%. The viability, T/C [28] was 99.2%, the viability, T/C [29] was 85.5% and the viability, T/C [30] was 72.9%. The viability, T/C [31] was 81.2%, the viability, T/C [32] was 84.1% and the viability, T/C [33] was 75.4%. It also gave a viability, T/C [34] of 77.2%, a viability, T/C [35] of 76.3% and a viability, T/C [36] of 64.1%. The viability, T/C (second compound 3.16 µM, first compound 0.0316 µM) was 61.4%, the viability, T/C (second compound 3.16 µM, first compound 0.1 µM) was 59.5% and the viability, T/C (second compound 3.16 µM, first compound 0.316 µM) was 63.1%. The viability, T/C (second compound 3.16 µM, first compound 1 µM) was 61.4%, the viability, T/C (second compound 3.16 µM, first compound 3.16 µM) was 62.3% and the viability, T/C (second compound 3.16 µM, first compound 10 µM) was 51%. For the same compound, the viability, T/C (second compound 10 µM, first compound 0.0316 µM) was 49.5%, the viability, T/C (second compound 10 µM, first compound 0.1 µM) was 51.6% and the viability, T/C (second compound 10 µM, first compound 0.316 µM) was 47.3%. For the same compound, the viability, T/C (second compound 10 µM, first compound 1 µM) was 49.4%, the viability, T/C (second compound 10 µM, first compound 3.16 µM) was 42.3% and the viability, T/C (second compound 10 µM, first compound 10 µM) was 39.7%.
Compound `Cn1cnc2c(F)c(Nc3ccc(Br)cc3Cl)c(C(=O)NOCCO)cc21` + CC(Nc1ncnc2nc[nH]c12)c1cc2cccc(Cl)c2c(=O)n1-c1ccccc1 has an IC50 (second compound 0.0316 µM) of 208 nM, an IC50 (second compound 0.1 µM) of 170 nM and an IC50 (second compound 0.316 µM) of 41.7 nM. The IC50 (second compound 1 µM) was 24.5 nM, the IC50 (second compound 3.16 µM) was under 9.49 nM and the IC50 (second compound 10 µM) was under 9.49 nM. For the same compound, the viability, T/C (second compound 0.0316 µM, first compound 0.00949 µM) was 75%, the viability, T/C (second compound 0.0316 µM, first compound 0.03 µM) was 63.7% and the viability, T/C (second compound 0.0316 µM, first compound 0.0949 µM) was 50.3%. For the same compound, the viability, T/C (second compound 0.0316 µM, first compound 0.3 µM) was 50.5%, the viability, T/C (second compound 0.0316 µM, first compound 0.949 µM) was 44.5% and the viability, T/C (second compound 0.0316 µM, first compound 3 µM) was 31.8%. It also gave a viability, T/C (second compound 0.1 µM, first compound 0.00949 µM) of 72.2%, a viability, T/C (second compound 0.1 µM, first compound 0.03 µM) of 63.9% and a viability, T/C (second compound 0.1 µM, first compound 0.0949 µM) of 50.2%. It also gave a viability, T/C (second compound 0.1 µM, first compound 0.3 µM) of 47.5%, a viability, T/C (second compound 0.1 µM, first compound 0.949 µM) of 41.8% and a viability, T/C (second compound 0.1 µM, first compound 3 µM) of 30.6%. For the same compound, the viability, T/C (second compound 0.316 µM, first compound 0.00949 µM) was 65%, the viability, T/C (second compound 0.316 µM, first compound 0.03 µM) was 53% and the viability, T/C (second compound 0.316 µM, first compound 0.0949 µM) was 42.3%. For the same compound, the viability, T/C (second compound 0.316 µM, first compound 0.3 µM) was 41%, the viability, T/C (second compound 0.316 µM, first compound 0.949 µM) was 39.1% and the viability, T/C (second compound 0.316 µM, first compound 3 µM) was 34.6%. It also gave a viability, T/C (second compound 1 µM, first compound 0.00949 µM) of 56.1%, a viability, T/C (second compound 1 µM, first compound 0.03 µM) of 50.5% and a viability, T/C (second compound 1 µM, first compound 0.0949 µM) of 37.7%. It also gave a viability, T/C (second compound 1 µM, first compound 0.3 µM) of 39%, a viability, T/C (second compound 1 µM, first compound 0.949 µM) of 33.2% and a viability, T/C (second compound 1 µM, first compound 3 µM) of 26.8%. The viability, T/C (second compound 3.16 µM, first compound 0.00949 µM) was 44.7%, the viability, T/C (second compound 3.16 µM, first compound 0.03 µM) was 36.4% and the viability, T/C (second compound 3.16 µM, first compound 0.0949 µM) was 28.8%. The viability, T/C (second compound 3.16 µM, first compound 0.3 µM) was 27.1%, the viability, T/C (second compound 3.16 µM, first compound 0.949 µM) was 26.2% and the viability, T/C (second compound 3.16 µM, first compound 3 µM) was 19.8%. For the same compound, the viability, T/C (second compound 10 µM, first compound 0.00949 µM) was 32.8%, the viability, T/C (second compound 10 µM, first compound 0.03 µM) was 29.2% and the viability, T/C (second compound 10 µM, first compound 0.0949 µM) was 21.7%. It also gave a viability, T/C (second compound 10 µM, first compound 0.3 µM) of 22.6%, a viability, T/C (second compound 10 µM, first compound 0.949 µM) of 24% and a viability, T/C (second compound 10 µM, first compound 3 µM) of 12.9%.
